Results: patent US4027039A (priority 1975, dated 1977)
Where “and” joins values, the source holds several entries; their conditions need not be identical. Equal entries are not always repeated. Entries after “also recorded” stand apart in the source; their conditions may differ. Structures can show the parent of a compound that is named as a salt. Where two headings read alike, the source gives them in different places.

Columns and labels:
[1] = test system: Influenza, Ann Arbor virus; assay: Influenza Ann Arbor in mice, oral; schedule by table; late read day 5 (Tables 15, 25, 29, 30), 6 (18, 20, 22, 23, 26, 27, 28, 54), 7 (14, 19, 21, 24, 53, 56), 8 (16, 17, 51), 9 (11, 55); format: in vivo, mouse
[2] = test system: Influenza B Maryland virus; assay: Influenza B Maryland in mice, oral; format: in vivo, mouse
viral infections = assay: Antiviral screening in animals, general statements; settings: mouse, in vivo
Columbia SK Polio virus = format: in vivo, mouse; settings: mouse, in vivo
Vaccinia virus = format: in vivo, rabbit; settings: rabbit, in vivo
[3] = test system: Influenza, Ann Arbor virus; assay: Influenza Ann Arbor in mice, subcutaneous; late read day 9 (Table 11), 7 (Tables 12, 14), 5 (Table 13); format: in vivo, mouse
Influenza PR 8 virus = assay: Influenza PR 8 in mice, oral; schedule by table; late read day 6 (Table 37), 7 (33, 36), 8 (32, 35, 47), 10 (38); control fraction 18/20 (Table 32), 19/20 (Table 35), else 100%; format: in vivo, mouse
Vaccinia IHD virus = format: in vivo, mouse
Neurovaccinia virus = assay: Neurovaccinia in mice; settings: intraperitoneal

SMILES: CN1C(=O)/C(=N\NC(N)=S)c2ccccc21 [Methisazone, 1-methylindole-2,3-dione, 3-thiosemicarbazone, reference compound]
- No. animals surviving after 6-9 days (Herpes virus; total dose .0000005 μg): 4 and 3
- No. animals surviving after 6-9 days (Herpes virus; total dose .05 μg): 1
- No. animals surviving when 100% (or given fraction) of controls are dead (Herpes virus; total dose .05 μg): 0
- Survivors (Herpes virus; total dose .05 μg): 0
- No. animals surviving after 5-9 days ([1]; total dose 5 μg): 4
- Survivors ([1]; total dose 5 μg): 0
- No. animals surviving after 5-9 days ([1]; total dose 50 μg): 3
- Survivors ([1]; total dose 50 μg): 0
- No. animals surviving after 5-9 days ([1]; total dose .00005 μg): 6
- Survivors ([1]; total dose .00005 μg): 0
- No. animals surviving after 5-9 days ([1]; total dose .0005 μg): 5
- Survivors ([1]; total dose .0005 μg): 0
- No. animals surviving after 5-9 days ([1]; total dose .005 μg): 5
- Survivors ([1]; total dose .005 μg): 0
- No. animals surviving after 5-9 days ([1]; total dose .05 μg): 4
- Survivors ([1]; total dose .05 μg): 0
- No. animals surviving after 5-9 days ([1]; total dose .5 μg): 6
- Survivors ([1]; total dose .5 μg): 0
- activity in words ([2]; mouse, in vivo): active
- No. animals surviving when 18/20 of controls are dead ([2]; total dose 6 ng): 4
- Survivors ([2]; total dose 6 ng): 2
- No. animals surviving when 18/20 of controls are dead ([2]; total dose 60 ng): 4
- Survivors ([2]; total dose 60 ng): 2
- No. animals surviving when 18/20 of controls are dead ([2]; total dose 600 ng): 2
- Survivors ([2]; total dose 600 ng): 2
- No. animals surviving when 18/20 of controls are dead ([2]; total dose 6 μg): 4
- Survivors ([2]; total dose 6 μg): 1
- activity in words (viral infections): active against pox virus infections of mice; also recorded: activity

SMILES: CCC(C)=NNC(N)=S [thiosemicarbazone]
- instances of statistically significant geometric mean survival time (Columbia SK Polio virus): two
- effect on pox formation (Vaccinia virus): very striking effects of the drug on the pox formation; also recorded: highly significant diminution of pox formation

SMILES: NN [hydrazine, hydrate]
- No. animals surviving after 5-9 days ([1]; total dose 5 μg): 4
- Survivors ([1]; total dose 5 μg): 0
- No. animals surviving after 5-9 days ([1]; total dose 50 μg): 4
- Survivors ([1]; total dose 50 μg): 0
- No. animals surviving after 5-9 days ([1]; total dose 500 μg): 5
- Survivors ([1]; total dose 500 μg): 0
- No. animals surviving after 5-9 days ([1]; total dose .00005 μg): 6
- Survivors ([1]; total dose .00005 μg): 0
- No. animals surviving after 5-9 days ([1]; total dose .0005 μg): 6
- Survivors ([1]; total dose .0005 μg): 0
- No. animals surviving after 5-9 days ([1]; total dose .005 μg): 3
- Survivors ([1]; total dose .005 μg): 0
- No. animals surviving after 5-9 days ([1]; total dose .05 μg): 3
- Survivors ([1]; total dose .05 μg): 1
- No. animals surviving after 5-9 days ([1]; total dose .5 μg): 6
- Survivors ([1]; total dose .5 μg): 0
- activity in words (viral infections): active
- No. animals surviving after 5-9 days ([3]; total dose 5 μg): 6
- Survivors ([3]; total dose 5 μg, hydrate): 3
- No. animals surviving after 5-9 days ([3]; total dose 50 μg, hydrate): 7 and 4
- Survivors ([3]; total dose 500 μg): 0
- No. animals surviving after 5-9 days ([3]; total dose 500 μg, hydrate): 6 and 3
- No. animals surviving after 5-9 days ([3]; total dose .00005 μg): 1
- Survivors ([3]; total dose .00005 μg): 0
- No. animals surviving after 5-9 days ([3]; total dose .0005 μg, hydrate): 5 and 7
- No. animals surviving after 5-9 days ([3]; total dose .005 μg, hydrate): 3 and 4
- No. animals surviving after 5-9 days ([3]; total dose .05 μg, hydrate): 4 and 6
- No. animals surviving after 5-9 days ([3]; total dose .5 μg, hydrate): 7 and 5
- No. animals surviving after 6-10 days (Influenza PR 8 virus; total dose 5 μg): 1
- No. animals surviving when 100% (or given fraction) of controls are dead (Influenza PR 8 virus; total dose 5 μg): 0
- Survivors (Influenza PR 8 virus; total dose 5 μg): 0
- No. animals surviving after 6-10 days (Influenza PR 8 virus; total dose 50 μg): 1
- No. animals surviving when 100% (or given fraction) of controls are dead (Influenza PR 8 virus; total dose 50 μg): 0
- Survivors (Influenza PR 8 virus; total dose 50 μg): 0
- No. animals surviving after 6-10 days (Influenza PR 8 virus; total dose .000005 μg): 4
- No. animals surviving when 100% (or given fraction) of controls are dead (Influenza PR 8 virus; total dose .000005 μg, hydrate): 4
- Survivors (Influenza PR 8 virus; total dose .0005 μg, hydrate): 1
- No. animals surviving when 100% (or given fraction) of controls are dead (Influenza PR 8 virus; total dose .5 μg): 1
- Survivors (Influenza PR 8 virus; total dose .5 μg): 1
- No. animals surviving after 6-10 days (Influenza PR 8 virus; total dose .5 μg, hydrate): 1

SMILES: NNC(N)=O [semicarbazide, hydrochloride]
- No. animals surviving after 6-9 days (Herpes virus; total dose 5 μg, hydrochloride): 5
- Statistical Significance of Tail Lesions (Vaccinia IHD virus; 10 ng, day 6): < .01
- Statistical Significance of Tail Lesions (Vaccinia IHD virus; 10 ng, day 11): < .05
- Statistical Significance of Tail Lesions (Vaccinia IHD virus; 10 ng, day 12): < .05
- Statistical Significance of Tail Lesions (Vaccinia IHD virus; 10 ng, day 17): < .05
- Statistical Significance of Tail Lesions (Vaccinia IHD virus; 1 μg, day 6): < .01
- Statistical Significance of Tail Lesions (Vaccinia IHD virus; 1 μg, day 8): < .01
- Statistical Significance of Tail Lesions (Vaccinia IHD virus; 1 μg, day 10): < .01
- Statistical Significance of Tail Lesions (Vaccinia IHD virus; 1 μg, day 11): < .01
- Statistical Significance of Tail Lesions (Vaccinia IHD virus; 1 μg, day 12): < .01
- Statistical Significance of Tail Lesions (Vaccinia IHD virus; 1 μg, day 14): < .01
- Statistical Significance of Tail Lesions (Vaccinia IHD virus; 1 μg, day 17): < .01
- Statistical Significance of Tail Lesions (Vaccinia IHD virus; 1 μg, day 21): < .05
- Statistical Significance of Tail Lesions (Vaccinia IHD virus; 10 [μg], day 7): < .01
- Statistical Significance of Tail Lesions (Vaccinia IHD virus; 10 [μg], day 10): < .05
- Statistical Significance of Tail Lesions (Vaccinia IHD virus; 10 [μg], day 11): < .01
- Statistical Significance of Tail Lesions (Vaccinia IHD virus; 10 [μg], day 12): < .01
- Statistical Significance of Tail Lesions (Vaccinia IHD virus; 10 [μg], day 14): < .01
- Statistical Significance of Tail Lesions (Vaccinia IHD virus; 10 [μg], day 17): < .01
- Statistical Significance of Tail Lesions (Vaccinia IHD virus; 10 [μg], day 21): < .05
- Statistical Significance of Tail Lesions (Vaccinia IHD virus; 100 [ng], day 7): < .05
- Statistical Significance of Tail Lesions (Vaccinia IHD virus; 100 [ng], day 11): < .05
- Statistical Significance of Tail Lesions (Vaccinia IHD virus; 100 [ng], day 12): < .05
- Statistical Significance of Tail Lesions (Vaccinia IHD virus; 100 [ng], day 14): < .05
- Statistical Significance of Tail Lesions (Vaccinia IHD virus; 100 [ng], day 17): < .01
- Statistical Significance of Tail Lesions (Vaccinia IHD virus; 100 [ng], day 21): < .01
- No. animals surviving after 6 days (Neurovaccinia virus; total dose .0075 μg): 1/2
- Survivors (Neurovaccinia virus; total dose .75 μg): 0
- activity in words (viral infections): effective
